Assay results from US20100317078A1, “METHODS TO IMPROVE ALCOHOL TOLERANCE OF MICROORGANISMS” (Cornell Research Foundation Inc, priority 2007, published 2010).
“And” between values parts separate entries of the source, which are not always exact repeats. Equal values may be shown once. Read-outs that look alike come from different tables or passages of the source.

Assays:
[1] = test system: S. cerevisiae wild type diploid MVY#2008; details: for Specific Death Rates in 2% Glucose (d): WT
Protocol: (§1) The method for examining ethanol tolerance using a plating technique was adapted from Chi et al. (Chi et al., “Role of Phosphatidylinositol (PI) in Ethanol Production and Ethanol Tolerance By a High Ethanol Producing Yeast,” J Industrial Microbiology Biotechnology 22:58-63 (1999), which is hereby incorporated by reference in its entirety). Inocula of wild type and opi1 yeast strains were prepared as previously described. Cells were centrifuged at 4,500 rpm for 5 min at 4° C. (Sorvall Legend R T, Kendro Laboratory Products, Asheville, N.C.), and the supernatant was removed. Cells were washed twice with −I media, centrifuged at 4,500 rpm for 5 min, and the resulting pellet was stored at 4° C.
(§2) The cell pellets were re-suspended in inositol-free media and the OD was measured. Cells were inoculated into a 500-mL polycarbonate Erlenmeyer flask containing 110-mL of synthetic media either containing (+I) or lacking inositol (−I) at a final OD of 0.1. The cell cultures were placed in an incubator-shaker at 30° C. and 250 rpm until the OD reached 0.5.
(§3) Two volumes of cell suspension containing 1×10^8 cells—previously determined by cell counting with a hemacytometer (Bright-Line Hemacytometer, Reichert Scientific Instruments, Buffalo, N.Y.)—were removed from the flasks and placed in separate sterile 50-mL centrifuge tubes. Cells were centrifuged at 4,500 rpm for 5 min at 4° C. and the supernatant was removed. Cells were washed twice with either −I or +I media as previously described, and the resulting supernatants were discarded. Ten mL of ethanol (10, 15 or 18% (v/v)) was added to one of the 50-mL centrifuge tubes containing a washed cell pellet and this represented the “shocked culture.” As a control, 10-mL of sterile water was added to the second 50-mL tube containing a washed cell pellet. Two 25-μl aliquots of the control culture were removed and plated on YPD plates, representing time zero of the experiment. Cell suspensions were transferred from 50-mL centrifuge tubes to 25-mL sterile glass tubes. The glass tubes were placed in an incubator-shaker at 30° C. and 250 rpm.
(§4) Samples of both the shocked and control cultures were taken every hour for 4 hr. Shocked cells were diluted in ethanol (10, 15, or 18%, consistent with the concentration of the shocked culture) at dilution factor of 1:1000. Control cells were diluted in sterile water at the same dilution factor. Duplicate 25-μl aliquots were plated on YPD plates for each sample of either shocked or control cell cultures over the 4 hr time course. All plates were placed in a 30° C. incubator. Colonies were counted on all plates after 48 and 72 hr. Duplicate plate counts were averaged. Ethanol tolerance of each strain, in terms of cell viability, in either +I or −I media over a range of ethanol concentrations, was expressed as a ratio of the number of colonies counted in the shocked culture at 72 hr to the number of colonies counted in the control culture at 72 hr. Cell viability in the control culture at time-zero of the experiment was assumed to be 100%.
(§5) Ethanol tolerance of each strain was calculated, in terms of cell viability (CV), using the number of colony forming units (CFUs) in the shocked and control cultures after 72 hr of incubation using the following equation:
(§6) Cell viability in the control culture at time-zero of the experiment was assumed to be 100%. All ethanol concentrations are volume-volume percentages (v/v), while all glucose concentrations are in weight-volume percentages (w/v).
(§7) To model the data presented in FIGS. 1 and 2 and to estimate specific death rates a simple first-order kinetic model was fitted to the data using the nonlinear parameter estimation tool in KaleidaGraph (Synergy Software, Reading, Pa.):
(§8) d=specific death rate, (hr^−1)

[2] = test system: S. cerevisiae mutant derivative MVY#2015 (opi1)
Protocol: as §1, §2, §3, §4, §5, §6, §7, §8

[3] = test system: S. cerevisiae wild type haploid MVY#19; details: WT, 5% Ethanol
Protocol: (§9) The method for examining ethanol tolerance by profiling yeast growth was adapted from You et al. (You et al., “Ethanol Tolerance in the Yeast Saccharomyces cerevisiae is Dependent on Cellular Oleic Acid Content,” Applied Environ Microbiology 69:1499-1503 (2003), which is hereby incorporated by reference in its entirety). Inocula of wildtype and opi1 yeast strains were prepared as previously described (see Plating Assays) except a Marathon 21K/BR bench top centrifuge (Fisher Scientific, Inc., Hampton, N.H.) was used. The cell pellet was suspended in —I media and the OD was measured by pipetting […] of the cell suspension into a clean well of a 96 well plate and reading OD in a plate reader (Synergy HT Multidetection Microplate Reader, Bio-Tek Instruments, Inc., Winooski, Vt.).
(§10) Cells were inoculated into 125-mL polycarbonate Erlenmeyer flasks with 50-mL of +I or −I containing either 2% or 12% glucose and 0 or 5% ethanol, at a final OD of 0.05. Each media type was performed in triplicate for both yeast strains. Flasks were placed in an incubator-shaker at 30° C. and 250 rpm (Gyratory Waterbath Shaker, New Brunswick Scientific, Edison, N.J.). The OD of each culture was measured over a period of at least 36 hr or until the cell density had stabilized for a period of no less than 12 hr. Triplicate OD measurements were performed for each sample and measurements were averaged.
(§11) Specific growth rate, or the growth rate over time per unit of biomass, was calculated in order to provide a quantitative assessment of the impact of experimental conditions on growth rate. Specific growth rates were estimated for both yeast strains for all of the conditions mentioned using the following first order kinetic equation:
(§12) μ=specific growth rate, (hr^−1)
(§13) This equation was fit to the data presented in FIGS. 3 through 6 using the nonlinear parameter estimation tool in KaleidaGraph.

[4] = test system: S. cerevisiae mutant derivative MVY#2013 (opi1); details: for increase in μ value for opi1 over wild type: 5% ethanol; for Specific Growth Rates in 2% Glucose (μ) / Specific Growth Rates in 12% Glucose (μ): 5% Ethanol
Protocol: as §9, §10, §11, §12, §13

SMILES: CCO [Ethanol, ethanol]
- d of wild type cells relative to opi1 cells ([1]; 15% ethanol after growth in +I media): over 3.5 times
- d of wild type cells relative to opi1 cells ([1]; 15% ethanol after growth in −I media): nearly four times
- Specific Death Rates in 2% Glucose (d) ([1]; grown in I+ media, shocked in 10% Ethanol): 0.084 h⁻¹
- Specific Death Rates in 2% Glucose (d) ([1]; grown in I+ media, shocked in 15% Ethanol): 2.61 h⁻¹
- Specific Death Rates in 2% Glucose (d) ([1]; grown in I+ media, shocked in 15% Ethanol, listed as ethanol): 2.61 h⁻¹ and 3.14 h⁻¹
- Specific Death Rates in 2% Glucose (d) ([1]; grown in I− media, shocked in 10% Ethanol): 0.049 h⁻¹
- Specific Death Rates in 2% Glucose (d) ([1]; grown in I− media, shocked in 15% Ethanol): 3.14 h⁻¹
- Specific Death Rates in 2% Glucose (d) ([1]; grown in I− media, shocked in 15% Ethanol, listed as ethanol): 3.14 h⁻¹ and 2.61 h⁻¹
- specific death rate d ([1]; wild type, 10% ethanol, with or without inositol in growth media): less than 0.1 hr^−1
- d after growth in −I media higher than after growth in +I ([1]; wild type, 15% ethanol): 20%
- d of opi1 in 18% ethanol, lower than d of wild type in 15% ethanol ([2]; both grown in +I media): 38%
- specific death rate d ([2]; opi1, 10% ethanol, with or without inositol in growth media): less than 0.1 hr^−1
- increase of d after growth in −I media in comparison to +I media ([2]; opi1, 15% ethanol): 11%
- Specific Death Rates in 2% Glucose (d) ([2]; opi1, grown in I+ media, shocked in 10% Ethanol): 0.036 h⁻¹
- Specific Death Rates in 2% Glucose (d) ([2]; opi1, grown in I+ media, shocked in 15% Ethanol): 0.71 h⁻¹
- Specific Death Rates in 2% Glucose (d) ([2]; opi1, grown in I+ media, shocked in 18% Ethanol): 1.61 h⁻¹
- Specific Death Rates in 2% Glucose (d) ([2]; opi1, grown in I− media, shocked in 10% Ethanol): 0.006 h⁻¹
- Specific Death Rates in 2% Glucose (d) ([2]; opi1, grown in I− media, shocked in 15% Ethanol): 0.79 h⁻¹
- Specific Growth Rates in 2% Glucose (μ) ([3]; I+ media): 0.111 ± 0.007 h⁻¹
- Specific Growth Rates in 12% Glucose (μ) ([3]; I+ media): 0.109 ± 0.010 h⁻¹
- Specific Growth Rates in 2% Glucose (μ) ([3]; I− media): 0.065 ± 0.004 h⁻¹
- Specific Growth Rates in 12% Glucose (μ) ([3]; I− media): 0.057 ± 0.007 h⁻¹
- increase in μ value for opi1 over wild type ([4]; +I media, 2% glucose): 5%
- increase in μ value for opi1 over wild type ([4]; +I media, 12% glucose): 16%
- increase in μ value for opi1 over wild type ([4]; −I media, 2% glucose): 57%
- increase in μ value for opi1 over wild type ([4]; −I media, 12% glucose): 33%
- Specific Growth Rates in 2% Glucose (μ) ([4]; opi1, I+ media, 2% glucose): 0.118 ± 0.012 h⁻¹
- Specific Growth Rates in 12% Glucose (μ) ([4]; opi1, I+ media, 12% glucose): 0.127 ± 0.007 h⁻¹
- Specific Growth Rates in 2% Glucose (μ) ([4]; opi1, I− media, 2% glucose): 0.102 ± 0.011 h⁻¹
- Specific Growth Rates in 12% Glucose (μ) ([4]; opi1, I− media, 12% glucose): 0.076 ± 0.010 h⁻¹
